Assay [1] deals with T1, Nitric oxide synthase (endothelial, human recombinant) eNOS (Homo sapiens, UniProt P29474).
T1 construct: purchased Axxora LLC ALX-201-070
Description: eNOS (human) enzyme assay, [3H]-L-arginine to L-citrulline. Particulars: Table 10, human eNOS; read-out: eNOSh. The class given is biochemical.
Description: Human nNOS and eNOS Protocol:
Procedure for Human nNOS and eNOS
Primary stock solutions of test compounds at a concentration of 6 mM are prepared. The primary stock solutions of each test compound are prepared freshly in distilled water on the day of study. […] Concentration range of test compound utilized for nNOS are 0.001 to 300 μM and for eNOS are 0.003 to 1000 μM. The vehicle of the test compound or inhibitor is used as blank control. […] The IC50 concentration of L-NAME was run in parallel as a control.
(§1) All incubations are performed in duplicate:
(§2) Prepare the reaction mixture on ice by adding the following components with a micropipette to a polypropylene microcentrifuge tube:
Start the reaction by addition of the substrate (in 5 µL containing 1 μCi of [^3H]-L-Arginine+2.5 μM of unlabeled L-Arginine) to the reaction mixture. Total reaction volume is 60 μL.
(§3) Mix using a vortex mixer and incubate the above reaction mixture at 37° C. in an incubator for 30 minutes.
(§4) Add 400 μL of ice-cold Stop Buffer at the end of the incubation period to stop the reaction. (The EDTA in the Stop Buffer chelates all of the available calcium.)
(§5) Mix using a vortex mixer and transfer the reaction samples to spin cups and centrifuge using a microcentrifuge, at 13,000 rpm for 30 sec. at room temperature.
(§6) Remove the spin cups from the holder and transfer 450 μL of eluate (containing the unbound L-citrulline) to scintillation vials. Add 3 mL of scintillation fluid and quantify the radioactivity in a liquid scintillation counter.
Calculation of IC50 Values:
(§7) Data is analyzed using a Sigmoidal dose-response (variable slope) curve to determine the IC50 value of the test compound. Y=Bottom+(Top−Bottom)/(1+10^((Log IC50−X)*Hill Slope))

Assay [2] deals with T2, Nitric oxide synthase (neuronal, human recombinant) nNOS (Homo sapiens, UniProt P29475).
T2 construct: purchased Axxora LLC ALX-201-068
Description: nNOS (human) enzyme assay, [3H]-L-arginine to L-citrulline. Particulars: for IC50: Table 10, human nNOS, read-out: nNOSh; for e/n: Table 10, ratio eNOS/nNOS. The class given is biochemical.
Description: nNOS (Human), eNOS (Human) Enzyme Assay
Human nNOS and eNOS Protocol:
Procedure for Human nNOS and eNOS
Primary stock solutions of test compounds at a concentration of 6 mM are prepared. The primary stock solutions of each test compound are prepared freshly in distilled water on the day of study. […] Concentration range of test compound utilized for nNOS are 0.001 to 300 μM and for eNOS are 0.003 to 1000 μM. The vehicle of the test compound or inhibitor is used as blank control.
as §1, §2
Total reaction volume is 60 μL.
as §3, §4, §5, §6
Calculation of IC50 Values:
as §7

The test system of assay [3] is rats with experimental pancreatitis. Description: Pancreatitis visceral pain model (DBTC), referred abdominal hypersensitivity, von Frey. The class given is in vivo, rat. Here is the method: Adult male Sprague Dawley rats (Harlan, Indianapolis, Ind.), weighing 150-200 g were maintained in a climate-controlled room with ad lib food and water on a 12-h light/dark cycle (lights on at 07:00 hours). All procedures followed the policies of the International Association for the Study of Pain and the NIH guidelines for the handling and use of laboratory animals. Studies were approved by the University of Arizona IACUC.
Pancreatitis was produced by a tail vein injection of dibutyltin dichloride (DBTC, Aldrich, Milwaukee, Wis., 0.25 cc) dissolved in 100% ethanol at a dose of 8 mg/kg under isofluorane anesthesia (2-3 liters/min, 4.0%/vol until anesthetized, then 2.5%/vol throughout the procedure) (Vera-Portocarrero et al., 2006). Control animals were injected with the vehicle solution only (100% ethanol, 0.25 cc).
Referred abdominal hypersensitivity in the pancreatitis model was quantified by measuring the number of withdrawals events evoked by application of a calibrated von Frey filament (determined by either abdominal withdrawal, licking of the abdominal area, or whole body withdrawal). Rats were placed inside Plexiglas boxes on an elevated fine fiberglass screen mesh and acclimated for 30 minutes before testing. A 4 g von Frey filament was applied from underneath through the mesh floor, to the abdominal area at different points on the surface. […] The mean occurrence of withdrawal events in each trial is expressed as the number of responses to 10 applications as previously described (Vera-Portocarrero et al., 2003).
Significant differences between each experimental group for the behavioral test across time were detected by a two-factor ANOVA follow by the Fishers Least Significance Difference post-hoc test. One-factor ANOVA was used to detect significant differences in behavioral outcomes within each experimental group over time. A linear regression analysis was used to detect the dose-dependency of the effects. Significance was established at the p<0.05 level.

A further assay has as its target T3, 5-HT1B (Rattus norvegicus, UniProt P28564).
T3 construct: from tissue; host or cells: rat cerebral cortex
Kind of assay: 5-HT1B binding assay (agonist radioligand), rat cerebral cortex. To be noted: Table 11, rat 1B receptor binding. Here is the method: 5-HT1D binding assays (agonist radioligand) were performed using bovine caudate membranes according to the methods of Heuring and Peroutka (J. Neurosci., 7: 894-903 (1987)). 5-HT1B (rat cerebral cortex) binding assays (agonist radioligand) were performed according to the method of Hoyer et. al. (Eur. J. Pharmacol., 118: 1-12 (1995)). For the purpose of result analysis, the specific ligand binding to the receptors is defined as the difference between the total binding and the nonspecific binding as determined in the presence of an excess of unlabelled ligand. The results are expressed as a percent of control specific binding obtained in the presence of the test compounds. IC50 values (concentration causing a half-maximal inhibition of control specific binding) and Hill coefficients (nH) were determined by non-linear regression analysis of the competition curves using Hill equation curve fitting and the inhibition constants (Ki) were calculated from the Cheng Prusoff equation (Ki=IC50/(1+(L/KD)), where L=concentration of radioligand in the assay, and KD=affinity of the radioligand for the receptor).

T2 sequence (P29475 whole entry): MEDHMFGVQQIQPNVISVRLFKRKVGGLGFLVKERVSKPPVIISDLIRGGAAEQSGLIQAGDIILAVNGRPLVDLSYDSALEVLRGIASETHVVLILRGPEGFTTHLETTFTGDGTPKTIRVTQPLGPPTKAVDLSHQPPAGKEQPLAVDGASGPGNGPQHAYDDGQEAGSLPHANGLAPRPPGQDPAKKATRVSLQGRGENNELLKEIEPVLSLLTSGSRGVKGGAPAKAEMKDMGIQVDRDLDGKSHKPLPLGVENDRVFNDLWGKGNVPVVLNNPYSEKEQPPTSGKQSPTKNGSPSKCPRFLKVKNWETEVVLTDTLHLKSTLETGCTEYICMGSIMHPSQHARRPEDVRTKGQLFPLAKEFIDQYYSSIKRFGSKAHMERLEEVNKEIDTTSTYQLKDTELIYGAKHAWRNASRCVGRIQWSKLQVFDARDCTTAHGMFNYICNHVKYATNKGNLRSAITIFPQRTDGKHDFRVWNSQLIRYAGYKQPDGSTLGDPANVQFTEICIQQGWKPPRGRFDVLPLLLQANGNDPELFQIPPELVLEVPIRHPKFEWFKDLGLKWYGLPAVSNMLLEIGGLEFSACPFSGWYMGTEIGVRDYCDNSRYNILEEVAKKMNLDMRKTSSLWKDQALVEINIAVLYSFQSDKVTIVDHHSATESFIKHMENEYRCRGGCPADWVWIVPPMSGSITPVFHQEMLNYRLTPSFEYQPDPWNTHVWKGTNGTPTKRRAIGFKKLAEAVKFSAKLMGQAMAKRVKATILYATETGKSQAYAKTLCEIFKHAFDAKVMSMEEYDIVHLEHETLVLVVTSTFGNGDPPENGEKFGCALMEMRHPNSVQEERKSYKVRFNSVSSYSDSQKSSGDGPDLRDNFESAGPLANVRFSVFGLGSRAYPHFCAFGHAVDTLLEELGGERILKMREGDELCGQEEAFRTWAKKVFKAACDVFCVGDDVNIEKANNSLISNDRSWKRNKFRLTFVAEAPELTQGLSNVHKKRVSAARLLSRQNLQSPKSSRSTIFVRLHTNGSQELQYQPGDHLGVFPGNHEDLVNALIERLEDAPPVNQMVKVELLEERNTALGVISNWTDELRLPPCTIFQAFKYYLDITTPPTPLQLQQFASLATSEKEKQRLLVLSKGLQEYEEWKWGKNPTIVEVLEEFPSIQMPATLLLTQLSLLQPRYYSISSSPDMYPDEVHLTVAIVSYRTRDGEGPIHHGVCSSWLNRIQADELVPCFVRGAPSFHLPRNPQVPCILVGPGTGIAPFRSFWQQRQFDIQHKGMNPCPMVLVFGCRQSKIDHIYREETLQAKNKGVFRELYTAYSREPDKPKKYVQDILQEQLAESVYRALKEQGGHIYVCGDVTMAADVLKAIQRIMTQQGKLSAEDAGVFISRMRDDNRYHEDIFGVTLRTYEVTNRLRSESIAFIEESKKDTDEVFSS
T1 sequence (P29474 whole entry): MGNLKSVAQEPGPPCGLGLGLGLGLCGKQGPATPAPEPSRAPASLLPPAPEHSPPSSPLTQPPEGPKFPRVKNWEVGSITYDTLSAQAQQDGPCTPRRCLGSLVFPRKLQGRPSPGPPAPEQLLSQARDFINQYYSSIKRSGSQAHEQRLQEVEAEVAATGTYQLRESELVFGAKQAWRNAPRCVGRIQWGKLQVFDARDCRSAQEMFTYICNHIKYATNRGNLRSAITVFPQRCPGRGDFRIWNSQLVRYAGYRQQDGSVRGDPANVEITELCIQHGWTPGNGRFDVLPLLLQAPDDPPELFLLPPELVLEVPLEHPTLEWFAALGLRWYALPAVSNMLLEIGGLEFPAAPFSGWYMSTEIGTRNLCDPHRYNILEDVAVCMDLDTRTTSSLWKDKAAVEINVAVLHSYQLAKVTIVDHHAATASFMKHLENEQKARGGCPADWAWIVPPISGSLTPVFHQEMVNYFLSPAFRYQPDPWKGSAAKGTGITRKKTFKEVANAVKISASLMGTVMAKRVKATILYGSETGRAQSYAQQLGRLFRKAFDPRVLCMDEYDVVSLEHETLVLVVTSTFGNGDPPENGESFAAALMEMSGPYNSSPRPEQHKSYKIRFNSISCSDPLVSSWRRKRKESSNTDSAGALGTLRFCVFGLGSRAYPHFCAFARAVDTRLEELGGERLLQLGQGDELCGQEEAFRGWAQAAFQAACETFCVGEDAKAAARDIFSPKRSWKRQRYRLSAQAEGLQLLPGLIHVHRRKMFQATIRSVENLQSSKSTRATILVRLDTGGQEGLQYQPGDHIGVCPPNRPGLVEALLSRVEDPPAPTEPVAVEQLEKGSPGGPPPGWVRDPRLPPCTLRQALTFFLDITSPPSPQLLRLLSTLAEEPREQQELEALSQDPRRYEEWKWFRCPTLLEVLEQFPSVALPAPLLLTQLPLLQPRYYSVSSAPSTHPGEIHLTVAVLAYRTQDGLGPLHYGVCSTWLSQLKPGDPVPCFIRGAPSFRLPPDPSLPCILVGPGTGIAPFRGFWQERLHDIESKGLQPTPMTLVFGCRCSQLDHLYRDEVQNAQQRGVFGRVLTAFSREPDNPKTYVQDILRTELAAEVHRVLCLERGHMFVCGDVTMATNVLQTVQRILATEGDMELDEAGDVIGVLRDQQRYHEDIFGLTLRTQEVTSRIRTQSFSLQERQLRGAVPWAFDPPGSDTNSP
T3 sequence (P28564 whole entry): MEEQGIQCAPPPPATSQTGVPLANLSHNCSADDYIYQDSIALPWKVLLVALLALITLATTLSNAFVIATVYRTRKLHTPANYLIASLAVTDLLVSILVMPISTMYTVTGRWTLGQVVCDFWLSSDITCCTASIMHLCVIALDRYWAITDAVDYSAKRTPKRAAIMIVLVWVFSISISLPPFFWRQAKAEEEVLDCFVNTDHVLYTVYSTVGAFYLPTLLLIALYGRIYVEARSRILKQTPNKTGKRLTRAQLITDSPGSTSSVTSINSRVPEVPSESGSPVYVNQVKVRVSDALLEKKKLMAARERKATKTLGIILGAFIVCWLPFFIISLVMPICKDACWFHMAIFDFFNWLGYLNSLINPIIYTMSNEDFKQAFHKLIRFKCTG

For the compound `CN1CCC(c2c[nH]c3ccc(NC(=N)c4cccs4)cc23)C1` (single isomer, unassigned) [Compound 6a, N-(3-(1-Methylpyrrolidin-3-yl)-1H-indol-5-yl)thiophene-2-carboximidamide], the IC50 worked out at 45.5 µM in assay [1], 0.68 µM in assay [2] and 1.4 µM on 5-HT1B. The e/n in assay [2] was 67. For the same compound, the “reversal of tactile allodynia in pancreatitis visceral pain model” value in assay [3] is given as “does not reverse tactile allodynia”.

Turning to `CN1CCC(c2c[nH]c3ccc(NC(=N)c4cccs4)cc23)C1` (single isomer, unassigned) [Compound 6b, N-(3-(1-Methylpyrrolidin-3-yl)-1H-indol-5-yl)thiophene-2-carboximidamide], the results for the IC50 (in assay [1]; in assay [2]; on 5-HT1B) were 20.6 µM, 0.205 µM and 0.705 µM, respectively. Also, the e/n in assay [2] was 100. Moreover, the “reversal of tactile allodynia in pancreatitis visceral pain model” value in assay [3] is “reverse the tactile allodynia”.

Source of the values: patent publication US8673909B2, “Indole compounds and methods for treating visceral pain” (NeurAxon, Inc., priority 2007, dated 2014).
